Test results published in patent US5994387A, “Pyrrolidinyl methyl indole salt” (Pfizer Inc., priority 1995, dated 1999).
Read-outs that look alike come from different tables or passages of the source.

Assays:
Format in all cases: physicochemical
[1] = Saturated solubility of free base and fumarate salt in water (HPLC); conditions: for solubility at 16 h: saturated solubility in water (MilliQ), 16 hours at room temperature; for Solubility in words: water, qualitative statement, fumarate
Method: For both the free base and fumarate salt, approximately 50 mg of solid bulk material was accurately weighed into a 1.5 mL plastic "Eppendorf" tube (Sigma). 0.3 mL of water (MilliQ) was then added to the tubes. The tubes were then vortex mixed at 1,300 rpm ("LKB") for 16 hours at room temperature. The supematant was separated from undissolved material by centrifugation at 13,000 rpm for 20 minutes ("Heraeus Biofuge 13"), then diluted and assayed for Compound (I) by HPLC. This assay used a mobile phase of acetonitrile (20%), water (80%) and trifluoroacetic acid (0.1%) and a 150×4.2 mm "Zorbax SB CN" column at 40° C. with U.V. detection at 220 nm.

[2] = Hygroscopicity: moisture uptake in moisture microbalance; conditions: for Hygroscopicity at 30° C. and 90% RH: moisture uptake; for Hygroscopicity in words: qualitative statement, fumarate
Method: Approximately 10 mg of each of the free base and fumarate salts of Compound (I) were exposed to 8 different relative humidities (RHs) between 0 and 94% at 30° C. in the Surface Measurement Systems Ltd moisture microbalance. The samples were allowed to reach equilibrium at each of these RHs and the change in weight from the initial value when the sample was first placed in the balance was calculated. The data was used to construct the moisture sorption isotherms for the materials. The hygroscopicity of the materials was compared by calculating the moisture uptake at 90%RH, which was as follows: […]

[3] = Oxidative stability in 90% PEG 400 with and without hydrogen peroxide; conditions: for Stability to oxidative degradation, in words: qualitative statement, fumarate
Description: (§1) Soft gelatin capsule formulations are an attractive delivery system for Compound (I) as they improve in vivo dissolution and content uniformity on manufacture. The compound (I) can be formulated as a liquid fill soft gelatin capsule. However, oxidative degradation often limits the shelf life of such formulations. PEG 400 is representative of a typical liquid fill diluent used for such a purpose. The following study was designed to determine whether oxidative degradation occurs with Compound (I) in such a formulation, and whether the fumarate salt provides protection against oxidative degradation. 1 mg/mL solutions of Compound (I) as the free base, Compound (I) as the hydrochloride salt and Compound (I) as the fumarate salt were prepared in 90% PEG 400 (BDH) and 10% water (Milli-Q). 10% water was added to the formulations to mimic the ingress of water from the soft gelatin capsule shell. […] However, for ease of solution preparation, the hydrochloride salt was used instead.
Hydrogen peroxide (BDH) to a final concentration of 0.3% w/w was added to the formulations to provide an oxidative stress. A control formulation without hydrogen peroxide was also used in the study. 1 mL of each formulation was sealed into 2 mL HPLC vials ("Cromacol") and placed in a thermostated oven at 40° C. Samples were taken at 1.5 and 3 days and stored frozen (-20° C.) prior to assay. The samples were diluted and analysed using the stability indicating HPLC assay as described above. Degradation was expressed as % Compound (I) remaining.

[4] = Solid-state (bulk) stability after 9 weeks storage, HPLC; set-up: key to % Degradation (% peak area @ 50° C.-% peak area @ 4° C.): --: No peaks present at this relative retention time; conditions: for Solid state stability in words: qualitative statement, fumarate; for degraded at 1512 h: solid state, read-out: % Degradation (% peak area @ 50° C.-% peak area @ 4° C.)
Method: Approximately 1 mg of each of the free base, hydrochloride, hydrobromide and fumarate salts of Compound (I) were accurately weighed into small glass vials. These were stored for 9 weeks at each of 4° C./ambient humidity, 40° C./ambient humidity, 40° C./75% RH and 50° C./ambient humidity. The samples were then assayed using the following stability indicating HPLC method. A mobile phase consisting of 0.05 M potassium dihydrogen orthophosphate adjusted to pH2 with phosphoric acid (90%) and acetonitrile (far UV) (10%), was pumped through a "Zorbax SB-CN" 150×4.6 mm column (40° C.) at a flow rate of 1 ml/min with UV detection at 225 nm.
The samples with the exception of the free base were prepared by dissolving them in the mobile phase in a 25 ml volumetric flask. The free base was dissolved in a few drops of methanol before diluting with the mobile phase.
The stability of the samples was quantified by investigating the appearance of new peaks in the chromatograms of stored samples and the increase in peaks present compared to control samples stored at 4° C.

[5] = Solubility in the 90% PEG 400 / 10% water formulation (observation); conditions: 1 mg/mL in 90% PEG 400 and 10% water
Description: as §1

[6] = relative retention time 0.40, 9 weeks at 50° C.
[7] = relative retention time 0.60, 9 weeks at 50° C.
[8] = relative retention time 0.77, 9 weeks at 50° C.
[9] = relative retention time 0.85, 9 weeks at 50° C.
[10] = relative retention time 0.91, 9 weeks at 50° C.
[11] = relative retention time 1.66, 9 weeks at 50° C.
[12] = relative retention time 1.93, 9 weeks at 50° C.
[13] = relative retention time 0.59, 9 weeks at 50° C.

CNS(=O)(=O)Cc1ccc2[nH]cc(C[C@H]3CCCN3C)c2c1.O=C(O)/C=C/C(=O)O [Fumarate salt, (R)-5-(methylaminosulphonylmethyl)-3-(N-methylpyrrolidin-2-ylmethyl)-1H-indole fumarate]
solubility at 16 h [1]: 67.5 mg/mL
Solubility in words [1]: Increased solubility
Solubility in words ([1]; listed as fumarate salt of (I)): excellent solubility
Hygroscopicity at 30° C. and 90% RH [2]: 0.2 % w/w
Hygroscopicity in words [2]: not accompanied by increased hygroscopicity
Hygroscopicity in words ([2]; listed as fumarate salt of (I)): non-hygroscopic
Degradation rate compared with the hydrochloride ([3]; 90% PEG 400, 40° C., both time points (1.5 and 3 days)): significantly lower (analysis of variance p<0.001) than the hydrochloride at both time points
Stability to oxidative degradation, in words [3]: significant protection against degradation in the formulation
Stability to oxidative degradation, in words ([3]; listed as fumarate salt of (I)): unexpectedly improved stability to oxidative degradation
Solid-state degradation in words ([4]; 9 weeks at 50° C.): had not degraded at all after 9 weeks 50 °C
Solid state stability in words [4]: most stable in the solid state
Solid state stability in words ([4]; listed as fumarate salt of (I)): excellent solubility and solid state stability
% Degradation (% peak area @ 50° C.-% peak area @ 4° C.) [4, 6]: --
% Degradation (% peak area @ 50° C.-% peak area @ 4° C.) [4, 7]: --
% Degradation (% peak area @ 50° C.-% peak area @ 4° C.) [4, 8]: --
% Degradation (% peak area @ 50° C.-% peak area @ 4° C.) [4, 9]: --
% Degradation (% peak area @ 50° C.-% peak area @ 4° C.) [4, 10]: --
% Degradation (% peak area @ 50° C.-% peak area @ 4° C.) [4, 11]: --
% Degradation (% peak area @ 50° C.-% peak area @ 4° C.) [4, 12]: --
degraded at 1512 h [4, 13]: 0%

CNS(=O)(=O)Cc1ccc2[nH]cc(C[C@H]3CCCN3C)c2c1 [Free base, (R)-5-(methylaminosulphonylmethyl)-3-(N-methylpyrrolidin-2-ylmethyl)-1H-indole]
solubility at 16 h [1]: 0.12 mg/mL
Hygroscopicity at 30° C. and 90% RH [2]: 0.2 % w/w
New drug related peaks ([4]; 9 weeks at 50° C.): 4 new drug related peaks
Solid-state degradation in words ([4]; 9 weeks at 50° C.): measurable degradation
total increase in % peak area ([4]; all peaks, 9 weeks at 50° C. vs 4° C., 90720 min): 0.32%
% Degradation (% peak area @ 50° C.-% peak area @ 4° C.) [4, 13]: --
% Degradation (% peak area @ 50° C.-% peak area @ 4° C.) [4, 8]: --
% Degradation (% peak area @ 50° C.-% peak area @ 4° C.) [4, 9]: --
degraded at 1512 h [4, 6]: 0.05%
degraded at 1512 h [4, 7]: 0.01%
degraded at 1512 h [4, 10]: 0.02%
degraded at 1512 h [4, 11]: 0.17%
degraded at 1512 h [4, 12]: 0.03%
Solubility in the PEG 400 formulation [5]: not very soluble
